Assay results from patent publication US11015061B2, “Phthalocyanine-based compound and uses of same” (YAMAMOTO CHEMICALS, INC., priority 2017, dated 2021).

Legend:
Assay type in all cases: physicochemical
[1] = Visible light transmittance of chloroform solution; conditions: spectrum converted to transmittance 10% at near-infrared maximum absorption wavelength
Description: The visible light transmittance of the phthalocyanine-based compound of the present invention and the comparative example compounds was measured by the following measurement method.
Each of the phthalocyanine compounds ([…]) and approximately 90 mL of chloroform were put into a 100 mL volumetric flask, and the solution in the flask was irradiated with ultrasonic waves for 30 minutes and left to stand for 2 hours at room temperature. Then, chloroform was added thereto such that the meniscus of the solution matched up with the calibration mark on the volumetric flask, thereby preparing a 10 mg/L phthalocyanine solution. The prepared solution was put into a 1 cm×1 cm cell made of PYREX (registered trademark), and the absorption spectrum thereof was measured using a spectrophotometer (produced by Hitachi, Ltd.: Spectrophotometer U-3500).
The absorption spectrum measured as above was converted such that the absorbance became 1.0, that is, the transmittance became 10% at the maximum absorption wavelength in a near-infrared range, thereby obtaining a transmission spectrum. […] At 460 nm, the transmittance of the compound of the present invention was approximately the same as the transmittance of Comparative Examples 1 and 2.

[2] = Absorption spectrum of toluene solution (maximum absorption, gram absorption coefficient); conditions: for gram absorption coefficient: at maximum absorption
Description: A toluene solution of the compound obtained in this way had maximum absorption at 734.0 nm, and the gram absorption coefficient thereof was 1.21×10^5 mL/g·cm. The absorption spectrum chart thereof is illustrated in FIG. 1.

[3] = Light fastness test of laminated glass; conditions: xenon light 200 hours at 550 W/h, absorbance integrated 400 to 900 nm
Description: The phthalocyanine-based compound (Specific Example (1)-30) produced in Example 1 (0.013 g) was dissolved in 40 g of triethylene glycol-di-2-ethylhexanoate as an organic ester plasticizer. The obtained solution was added to 100 g of a polyvinyl butyral resin (trade name: BH-3, produced by SEKISUI CHEMICAL CO., LTD.), thoroughly melted and kneaded using a mixing roll, and extruded using an extruder, thereby obtaining an interlayer having a thickness of 0.76 mm.
The interlayer was cut in size of 100 mm×100 mm, interposed between heat ray absorbing glass plates (100 mm (length)×100 mm (width)×2.0 mm (thickness)) prepared based on JIS R3208, put into a rubber bag, and deaerated for 20 minutes at a degree of vacuum of 2.6 kPa. Then, the deaerated laminate was moved into an oven and further hold for 30 minutes at 90° C. to vacuum press. Thereafter, the laminate was compressed for 20 minutes in an autoclave under the condition of a temperature of 130° C. and a pressure of 1.3 MPa, thereby obtaining a laminated glass sample.
For a light fastness test, the absorption spectrum of the laminated glass was measured using a spectrophotometer (produced by Hitachi, Ltd.: Spectrophotometer U-3500) and adopted as a spectrum before light fastness test. Then, the laminated glass used for measuring the spectrum before test was irradiated with light for 200 hours at 550 W/h by using a xenon light fastness tester (produced by Toyo Seiki Seisaku-sho, Ltd.: SUNTEST XLS+). The absorption spectrum of the laminated glass irradiated with light was measured using the spectrophotometer and adopted as a spectrum after light fastness test.
(§1) In each of the spectra measured as above before and after the light fastness⋅heat resistance test, the values of absorbance within a range of 400 to 900 nm were integrated, and a difference between the integrated value before the light fastness⋅heat resistance test and the integrated value after the light fastness⋅heat resistance test was calculated.
(§2) The difference ΔE between the absorbance before the light fastness⋅heat resistance test and the absorbance after the light fastness⋅heat resistance test is expressed by the following equation. ΔE (%)={E(400 to 900 nm in E1)−E(400 to 900 nm in E2)}/E(400 to 900 nm in E1)×100
E1 represents the spectrum before test, E2 represents the spectrum after test, and Σ represents integration of values of absorbance. The larger the value of ΔE, the greater the spectrum change between before and after the light fastness⋅heat resistance test.

[4] = Tts (total solar transmittance) of heat ray shielding film; conditions: heat ray shielding film (5 g compound, 50 g acryl resin LP-45M, 2.5 μm on PET) on 3 mm glass plate; JIS R3106
Text: The phthalocyanine compound (Specific Example (1)-30) produced in Example 1 (5 g), 50 g of an acryl resin LP-45M (trade name, produced by Soken Chemical & Engineering Co., Ltd.), 20 g of methyl ethyl ketone, and 20 g of toluene were mixed and stirred together, thereby producing a resin composition.
As a transparent substrate, a polyethylene terephthalate film (PET film) having a thickness of 100 μm was bar-coated with the resin composition such that the thickness thereof became 2.5 μm, and then the applied resin composition was dried for 3 minutes at 100° C. Furthermore, the other surface of the PET film (surface not being coated with the resin composition) was bar-coated with a transparent acryl copolymer-based pressure sensitive adhesive such that the thickness thereof became 20 μm, and the applied pressure sensitive adhesive was dried and cured for 3 minutes at 100° C. Thereafter, a release film was bonded to the surface of the pressure sensitive adhesive, thereby producing a heat ray shielding film.
(§3) In the evaluation test, the release film was peeled from the produced heat ray shielding film, then the heat ray shielding film was compressed on a 5 cm×5 cm×3 mm (thickness) glass plate, and a test piece created in this way was used.
By using U-3500 type recording spectrophotometer produced by Hitachi, Ltd. as a measurement instrument, Tts of the laminated glass sample was measured based on JIS R3106 “Testing method for transmittance, reflectance, emissivity, and solar heat gain coefficient of flat glasses”.
Tts (Total solar energy transmitted through a glazing) represents a total solar transmittance.

[5] = Heat resistance test of heat ray shielding film; conditions: 200 hours at 100° C., absorbance integrated 400 to 900 nm
Description: as §3
For a heat resistance test, the test piece used for measuring the spectrum before test as described above was treated with heat for 200 hours at a temperature of 100° C. in a thermostat (produced by Yamato Scientific co., ltd.: IG400). By using the spectrophotometer, the absorption spectrum of the heat-treated test piece was measured and adopted as a spectrum after heat resistance test.
as §1, §2
E1 represents the spectrum before test, E2 represents the spectrum after test, and Σ represents integration of the values of absorbance.
The larger the value of ΔE, the greater the spectrum change between before and after the light fastness⋅heat resistance test.

| SMILES | Transmittance (%) 460 nm [1] [%] | Transmittance (%) 610 nm [1] [%] | maximum absorption [2] [nm] | gram absorption coefficient [2] [mL/g/cm] | ΔE (%) Light fastness [3] [%] | Tts [4] [%] | ΔE (%) Heat resistance [5] [%] |
| --- | --- | --- | --- | --- | --- | --- | --- |
| COc1cccc(OC)c1OCCCCc1ccc(CCCCOc2c(OC)cccc2OC)c2c1-c1nc-2nc2[n-]c(nc3nc(nc4[n-]c(n1)c1c(CCCCOc5c(OC)cccc5OC)ccc(CCCCOc5c(OC)cccc5OC)c41)-c1c(CCCCOc4c(OC)cccc4OC)ccc(CCCCOc4c(OC)cccc4OC)c1-3)c1c(CCCCOc3c(OC)cccc3OC)ccc(CCCCOc3c(OC)cccc3OC)c21.[O]=[V+2] [Specific Example (1)-44] | 98.3 | 89.0 | 734.5 | 67500 | 3 | 85.6 | 4 |
| [O]=[V+2].c1ccc(OCCCCc2ccc(CCCCOc3ccccc3)c3c2-c2nc-3nc3[n-]c(nc4nc(nc5[n-]c(n2)c2c(CCCCOc6ccccc6)ccc(CCCCOc6ccccc6)c52)-c2c(CCCCOc5ccccc5)ccc(CCCCOc5ccccc5)c2-4)c2c(CCCCOc4ccccc4)ccc(CCCCOc4ccccc4)c32)cc1 [Specific Example (1)-37] | 98.0 | 88.1 | 735.5 | 86300 | 3 | 85.5 | 3 |
| COCCCCc1ccc(CCCCOC)c2c1-c1nc-2nc2[n-]c(nc3nc(nc4[n-]c(n1)c1c(CCCCOC)ccc(CCCCOC)c41)-c1c(CCCCOC)ccc(CCCCOC)c1-3)c1c(CCCCOC)ccc(CCCCOC)c21.[Cu+2] [Specific Example (1)-31] | 99.2 | 88.3 | 705.5 | 78900 | 3 | 86 | 3 |
| [O]=[V+2].c1ccc(OCCOCCCCc2ccc(CCCCOCCOc3ccccc3)c3c2-c2nc-3nc3[n-]c(nc4nc(nc5[n-]c(n2)c2c(CCCCOCCOc6ccccc6)ccc(CCCCOCCOc6ccccc6)c52)-c2c(CCCCOCCOc5ccccc5)ccc(CCCCOCCOc5ccccc5)c2-4)c2c(CCCCOCCOc4ccccc4)ccc(CCCCOCCOc4ccccc4)c32)cc1 [Specific Example (1)-38] | 98.3 | 88.6 | 735.0 | 71600 | 4 | 85.8 | 3 |
| COCc1ccc(COC)c2c1-c1nc-2nc2[n-]c(nc3nc(nc4[n-]c(n1)c1c(COC)ccc(COC)c41)-c1c(COC)ccc(COC)c1-3)c1c(COC)ccc(COC)c21.[O]=[V+2] [Comparative Example Compound (a), reference compound] | 97.9 | 86.6 | 733.0 | 130000 | 33 | 89.5 | 31 |
| COc1cccc(OCCCCc2ccc(CCCCOc3cccc(OC)c3)c3c2-c2nc-3nc3[n-]c(nc4nc(nc5[n-]c(n2)c2c(CCCCOc6cccc(OC)c6)ccc(CCCCOc6cccc(OC)c6)c52)-c2c(CCCCOc5cccc(OC)c5)ccc(CCCCOc5cccc(OC)c5)c2-4)c2c(CCCCOc4cccc(OC)c4)ccc(CCCCOc4cccc(OC)c4)c32)c1.[Cu+2] [Specific Example (1)-40] | 99.4 | 88.0 | 706.5 | 67800 | 2 | 85.9 | 3 |
| CC(C)(C)c1ccc(OCCCCc2ccc(CCCCOc3ccc(C(C)(C)C)cc3)c3c2-c2nc-3nc3[n-]c(nc4nc(nc5[n-]c(n2)c2c(CCCCOc6ccc(C(C)(C)C)cc6)ccc(CCCCOc6ccc(C(C)(C)C)cc6)c52)-c2c(CCCCOc5ccc(C(C)(C)C)cc5)ccc(CCCCOc5ccc(C(C)(C)C)cc5)c2-4)c2c(CCCCOc4ccc(C(C)(C)C)cc4)ccc(CCCCOc4ccc(C(C)(C)C)cc4)c32)cc1.[O]=[V+2] [Specific Example (1)-42] | 97.9 | 88.5 | 734.5 | 71000 | 2 | 86 | 4 |
| Fc1ccccc1OCCCCc1ccc(CCCCOc2ccccc2F)c2c1-c1nc-2nc2[n-]c(nc3nc(nc4[n-]c(n1)c1c(CCCCOc5ccccc5F)ccc(CCCCOc5ccccc5F)c41)-c1c(CCCCOc4ccccc4F)ccc(CCCCOc4ccccc4F)c1-3)c1c(CCCCOc3ccccc3F)ccc(CCCCOc3ccccc3F)c21.[O]=[V+2] [Specific Example (1)-43] | 97.6 | 88.0 | 735.5 | 78900 | 3 | 85.7 | 3 |
| COc1cccc(OC)c1OCCCCc1ccc(CCCCOc2c(OC)cccc2OC)c2c1-c1nc-2nc2[n-]c(nc3nc(nc4[n-]c(n1)c1c(CCCCOc5c(OC)cccc5OC)ccc(CCCCOc5c(OC)cccc5OC)c41)-c1c(CCCCOc4c(OC)cccc4OC)ccc(CCCCOc4c(OC)cccc4OC)c1-3)c1c(CCCCOc3c(OC)cccc3OC)ccc(CCCCOc3c(OC)cccc3OC)c21.[Cu+2] [Specific Example (1)-45] | 99.9 | 89.5 | 706.5 | 60100 | 3 | 85.5 | 3 |
| CCOCCCCc1ccc(CCCCOCC)c2c1-c1nc-2nc2[n-]c(nc3nc(nc4[n-]c(n1)c1c(CCCCOCC)ccc(CCCCOCC)c41)-c1c(CCCCOCC)ccc(CCCCOCC)c1-3)c1c(CCCCOCC)ccc(CCCCOCC)c21.[O]=[V+2] [Specific Example (1)-33] | 98.1 | 88.3 | 734.0 | 119000 | 2 | 85.8 | 2 |
